Tests used:
[1] = system: Calu-3 (Lung Adenocarcinoma); test: Bliss excess, mean over the matrix (fraction); higher = more synergy
How it was run: (§1)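 After 24 hours at 37°C and 5% CO2 in 1536-well plates, cells in DMEM/F12 or RPMI plus 10% FBS received two-drug dose matrices for 72 hours. Viability came from CellTiter-Glo 2.0 luminescence and was scaled as inhibition, anchored at 0 by vehicle wells and at 1 by blank wells. Combination Emax is taken as the second-highest inhibition in the matrix, and Bliss excess as the observed combination effect less EA + EB − EA·EB, with EA and EB the single-agent effects.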

[2] = system: LNCaP-Clone-FGC (Prostate Carcinoma); test: as above
How it was run: as §1

[3] = system: LB831-BLC (Bladder Carcinoma); test: as above
How it was run: as §1

[4] = system: SNU-5 (Gastric Carcinoma); test: as above
How it was run: as §1

[5] = system: HCC-78 (Lung Adenocarcinoma); test: as above
How it was run: as §1

AGS (Gastric Carcinoma) = test: as above
How it was run: as §1

[6] = system: EC-GI-10 (Esophageal Squamous Cell Carcinoma); test: combination Emax (second highest fraction inhibited in the dose matrix, 72 h); higher = more inhibition; extreme values may be limits of the assay
How it was run: as §1

[7] = system: UM-UC-3 (Bladder Carcinoma); test: as above
How it was run: as §1

[8] = system: LB831-BLC (Bladder Carcinoma); test: as above
How it was run: as §1

[9] = system: SNU-5 (Gastric Carcinoma); test: as above
How it was run: as §1

[10] = system: RO82-W-1 (Thyroid Gland Carcinoma); test: as above
How it was run: as §1

42-MG-BA (Glioblastoma) = test: as above
How it was run: as §1

[11] = system: Ramos-2G6-4C10 (Burkitt's Lymphoma); test: as above
How it was run: as §1

[12] = system: KURAMOCHI (Ovarian Carcinoma); test: as above
How it was run: as §1

NOS-1 (Osteosarcoma) = test: as above
How it was run: as §1

[13] = system: KP-1N (Pancreatic Carcinoma); test: as above
How it was run: as §1

[14] = system: CAL-148 (Breast Carcinoma); test: as above
How it was run: as §1

[15] = system: HCC1806 (Breast Carcinoma); test: as above
How it was run: as §1

NB10 (Neuroblastoma) = test: as above
How it was run: as §1

[16] = system: HCC-78 (Lung Adenocarcinoma); test: as above
How it was run: as §1
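Wherever Bliss excess, mean over the matrix is given: after 72 h of two-drug dosing.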

Structure (SMILES)	Bliss excess [1]	Bliss excess [2]	Bliss excess [3]	Bliss excess [4]	Bliss excess [5]	Bliss excess (AGS (Gastric Carcinoma))	combination Emax [6]	combination Emax [7]	combination Emax [8]	combination Emax [9]	combination Emax [10]	combination Emax (42-MG-BA (Glioblastoma))	combination Emax [11]	combination Emax [12]	combination Emax (NOS-1 (Osteosarcoma))	combination Emax [13]	combination Emax [14]	combination Emax [15]	combination Emax (NB10 (Neuroblastoma))	combination Emax [16]
CC1(C)CCC(CN2CCN(c3ccc(C(=O)NS(=O)(=O)c4ccc(NCC5CCOCC5)c([N+](=O)[O-])c4)c(Oc4cnc5[nH]ccc5c4)c3)CC2)=C(c2ccc(Cl)cc2)C1 [Venetoclax] + CCN(CCO)CCCOc1ccc2c(Nc3cc(CC(=O)Nc4cccc(F)c4)[nH]n3)ncnc2c1 [AZD2811] (first compound max 1 µM, 7x7, partner max 1 µM)	-0.0057	-0.0706	-0.0073	-0.0426	-0.0149	0.0196	0.308	0.16	0.188	0.151	0.141	0.534	0.269	0.471	0.255	0.162	0.933	0.212	0.5	0.225
C[C@@H](c1ccc2nccn2c1)n1nnc2ncc(-c3cnn(C)c3)nc21 [Savolitinib] + Cc1c2c(nn1C)CSCc1cc(n(C)n1)CSc1cc(c3ccccc3c1)OCCCc1c(C(=O)O)n(C)c3c-2c(Cl)ccc13 [AZD5991] (first compound max 1 µM, 7x7, partner max 1 µM)	-0.021	-0.0148	-0.0148	0.0188	-0.0366	-0.0855	0.285	0.14	0.232	0.937	0.169	0.192	0.975	0.286	0.742	0.194	0.275	0.2	0.202	0.18
Cc1cc2ncnn2cc1Nc1ncc2c(n1)n(C1CCOCC1)c(=O)n2C [AZD7648] + C=CCn1c(=O)c2cnc(Nc3ccc(N4CCN(C)CC4)cc3)nc2n1-c1cccc(C(C)(C)O)n1 [AZD1775] (first compound max 10 µM, partner max 1 µM)	-0.0073	-0.0273	-0.0611	0.0073	-0.0417	-0.0152	0.78	0.287	0.455	0.558	0.46	0.439	0.998	0.664	0.432	0.349	0.928	0.894	0.594	0.432

Reference: the supplement of paper PMC11061612
